{"source": "ChEMBL document CHEMBL5346892", "about": "“Design and synthesis of benzochromene derivatives as AcrB inhibitors for the reversal of bacterial multidrug resistance” (Eur J Med Chem, 2023)", "format_in_all_cases": "functional", "key": {"Escherichia coli [1]": {"tested_on": "Escherichia coli", "assay": "Synergistic antibacterial activity against wild type Escherichia coli BW25113 assessed as fold decrease in minocycline MIC at 64 microg/ml incubated for 18 hrs by checkboard based microplate reader analysis", "settings": "dose 64 µg/ml"}, "Escherichia coli [2]": {"tested_on": "Escherichia coli", "assay": "Synergistic antibacterial activity against wild type Escherichia coli BW25113 assessed as fold decrease in minocycline MIC at 128 microg/ml incubated for 18 hrs by checkboard based microplate reader analysis", "settings": "dose 128 µg/ml"}, "Escherichia coli [3]": {"tested_on": "Escherichia coli", "assay": "Synergistic antibacterial activity against wild type Escherichia coli BW25113 assessed as fold decrease in erythromycin MIC at 64 microg/ml incubated for 18 hrs by checkboard based microplate reader analysis", "settings": "dose 64 µg/ml"}, "Escherichia coli [4]": {"tested_on": "Escherichia coli", "assay": "Synergistic antibacterial activity against wild type Escherichia coli BW25113 assessed as erythromycin MIC at 4 microg/ml incubated for 18 hrs in presence of colistin by broth dilution assay", "settings": "dose 4 µg/ml"}, "Escherichia coli [5]": {"tested_on": "Escherichia coli", "assay": "Synergistic antibacterial activity against wild type Escherichia coli BW25113 assessed as minocycline MIC at 0.5 microg/ml incubated for 18 hrs in presence of colistin by broth dilution assay", "settings": "dose 0.5 µg/ml"}, "Escherichia coli [6]": {"tested_on": "Escherichia coli", "assay": "Synergistic antibacterial activity against wild type Escherichia coli BW25113 assessed as minocycline MIC at 2 microg/ml incubated for 18 hrs in presence of colistin by broth dilution assay", "settings": "dose 2 µg/ml"}, "Escherichia coli [7]": {"tested_on": "Escherichia coli", "assay": "Synergistic antibacterial activity against wild type Escherichia coli BW25113 assessed as minocycline MIC at 1 microg/ml incubated for 18 hrs in presence of colistin by broth dilution assay", "settings": "dose 1 µg/ml"}}, "data": [{"smiles": "COc1ccc(OCCCOc2cccc3c4c(c(C(=O)N5CCOCC5)cc23)CCC(C)(C)O4)cc1", "values": [{"measurement": "fold change (FC)", "setting": "Escherichia coli [1]", "value": 4}]}, {"smiles": "CC1(C)CCc2c(C(=O)N3CCOCC3)cc3c(OCCCOc4cccc(C(=O)O)c4)cccc3c2O1", "values": [{"measurement": "fold change (FC)", "setting": "Escherichia coli [2]", "value": 4}, {"measurement": "fold change (FC)", "setting": "Escherichia coli [3]", "value": 4}]}, {"smiles": "CC1(C)CCc2c(C(=O)N3CCOCC3)cc3c(OCCSc4ccc([N+](=O)[O-])cc4)cccc3c2O1", "values": [{"measurement": "MIC", "setting": "Escherichia coli [4]", "value": 8, "unit": "mg/L"}]}, {"smiles": "CC1(C)CCc2c(C(=O)N3CCOCC3)cc3c(OCCN4CCN(c5ccccc5)CC4)cccc3c2O1", "values": [{"measurement": "MIC", "setting": "Escherichia coli [5]", "value": 1, "unit": "mg/L"}, {"measurement": "MIC", "setting": "Escherichia coli [6]", "value": 0.5, "unit": "mg/L"}, {"measurement": "MIC", "setting": "Escherichia coli [7]", "value": 0.5, "unit": "mg/L"}]}]}
